Reference: patent US4400517A, “Phosphoric esters derived from 1,2,4-triazole having an insecticidal, nematocidal and acaricidal action, and their preparation” (priority 1976, dated 1983)
Where two headings read alike, the source gives them in different places.

Columns and labels:
Type in all cases: in vivo
[1] = test system: Pieris brassicae; experiment: Biological activity on Pieris brassicae (Lepidoptera); conditions: 48 h
Method: (2) Biological activity on Pieris brassicae (Lepidotera)
Cut-off cauliflower leaves were sprinkled with an aqueous dispersion of the products under examination (see TABLE 5).
After drying, the leaves were infested with 5-day old larvae. The percentage of mortality of the larvae (untreated leaves=0) was determined after 48 hours from treatment.

[2] = test system: Leptinotarsa decemlineata; experiment: Biological activity on Leptinotarsa decemlineata (Coleoptera); conditions: 48 h, Table 5, read-out: Activity (mortality class), Leptinotarsa D.; for mortality at 0.005 %: 0.05%o; for mortality at 0.1 %: 1%o
Method: (3) Biological activity on Leptinotarsa decemlineata (Coleoptera)
Small potato plants grown in pots were infested with 4-day old larvae, and were then sprinkled with an aqueous dispersion of the products under examination (see Tables 4 and 5).
The mortality percentage (untreated small plants=0) was determined after 48 hours from treatment.

[3] = test system: Culex pipiens; experiment: Biological activity on Culex pipiens larvae (Diptera); conditions: 24 h, Table 5, read-out: Activity (mortality class), Culex P. (larvae)
Method: (4) Biological activity on Culex pipiens (Diptera)
Into glasses containing an aqueous dispersion of the products under examination (see Tables 4 and 5) there were introduced mosquito larvae of third and fourth age.
The mortality percentage of the larvae (glasses containing pure water=0) was determined after 24 hours from treatment.

[4] = test system: Tetranychus urticae; experiment: Biological activity on adults of Tetranychus urticae (Acari); conditions: 24 h, Table 5, read-out: Activity (mortality class), Tetranychus U. (adults); for mortality at 0.001 %: 0.01%o; for mortality at 0.1 %: 1%o
Method: (5) Biological activity on adults of Tetranychus urticae (Acari)
Discs of bean leaves were infested with adult acari and then sprinkled with an aqueous dispersion of the products under examination (see Tables 4 and 5).
The mortality percentage was determined after 24 hours from treatment (untreated leaf discs, mortality=0).

[5] = test system: Spodoptera littoralis; experiment: Biological activity on Spodoptera littoralis (Lepidoptera); conditions: 48 h
Method: (7) Biological activity on Spodoptera littoralis (Lepidoptera)
Cut tobacco leaves were sprinkled with an aqueous dispersion of the products under examination (see Tables 4 and 5).
After drying, the leaves were infested with 5-day old larvae.
The percentage of mortality of the larvae was determined after 48 hours from treatment (untreated leaves, mortality=0).

[6] = test system: Blatta orientalis; experiment: Biological activity on Blatta orientalis (Ortoptera); conditions: Blatta orientalis, 48 h, read-out: Activity (mortality class), Blatta O.
Method: (10) Biological activity on Blatta orientalis (Ortoptera)
The bottom and walls of glass crystallizers were treated uniformly with an acetonic solution of the products under examination (see Tables 4 and 5). After evaporation of the solvent, into each crystallizer were introduced ten 80-100 days old neanides. The crystallizers were then closed with a metal net cover. After 24 hours from the start of the treatment, the insects were transferred to similar untreated crystallizers, and there were appropriately nourished in conventional manner.
The percentage of mortality (untreated insects=0) was determined after 48 hours from the start of the treatment.

[7] = 0.01%o, Table 5, read-out: Activity (mortality class), Pieris B.
[8] = 1%o, Table 5, read-out: Activity (mortality class), Pieris B.
[9] = 0.05%o, Table 5, read-out: Activity (mortality class), Spodoptera L.
[10] = 1%o, Table 5, read-out: Activity (mortality class), Spodoptera L.
[11] = read-out: Activity (mortality class), Pieris B.
[12] = read-out: Activity (mortality class), Spodoptera L.

Structure (SMILES)	mortality at 0.001 % [1, 7] [%]	mortality at 0.1 % [1, 8] [%]	mortality at 0.005 % [2] [%]	mortality at 0.1 % [2] [%]	mortality at 0.02 ppm [3] [%]	mortality at 2 ppm [3] [%]	mortality at 0.001 % [4] [%]	mortality at 0.1 % [4] [%]	mortality at 0.005 % [5, 9] [%]	mortality at 0.1 % [5, 10] [%]	mortality at 0.01 g/m2 ([6]; 0,01 g/m^2, Table 5) [%]	mortality at 1 g/m2 ([6]; 1 g/m^2, Table 5) [%]	mortality at 0.001 % [1, 11] [%]	mortality at 0.1 % [1, 11] [%]	mortality at 0.005 % [5, 12] [%]	mortality at 0.1 % [5, 12] [%]	mortality at 0.01 g/m2 [6] [%]	mortality at 1 g/m2 [6] [%]
CCOP(=S)(OCC)Oc1nc(C=C(Cl)OC)nn1C [M 8592]	100	100	100	100	10 to 69	100	100	100	100	100	100	100	–	–	–	–	–	–
CCOP(=S)(Oc1nc(C=C(Cl)Cl)nn1C)c1ccccc1 (stereo not drawn) [M 9579]	–	–	–	–	–	100	–	100	–	–	–	–	–	–	–	–	–	–
CCCOP(=S)(OCCC)Oc1nc(C=C(Cl)Cl)nn1C(C)C [M 8500]	10 to 69	100	–	100	–	70 to 99	–	10 to 69	–	10 to 69	–	0 to 9	–	–	–	–	–	–
CCOP(=S)(OCC)Oc1nc(C(C)O)nn1-c1ccccc1 (stereo not drawn) [M 7853]	–	100	–	100	–	100	–	100	–	100	–	10 to 69	–	–	–	–	–	–
C=Cc1nc(OP(=S)(OCC)OCC)n(-c2ccccc2)n1 [M 8261]	–	100	–	100	–	100	–	100	–	100	–	100	–	–	–	–	–	–
CC=Cc1nc(OP(=S)(OCC)OCC)n(CCCC)n1 [M 8497]	70 to 99	–	100	–	0 to 9	–	10 to 69	–	0 to 9	–	10 to 69	–	–	–	–	–	–	–
CCOP(=S)(OC)Oc1nc(C=C(Cl)Cl)nn1C (stereo not drawn) [M 9750]	–	–	10 to 69	100	100	100	100	100	100	100	100	100	–	–	–	–	–	–
CCOP(=S)(OCC)Oc1nc(C(C)OC(=O)C=C(Cl)Cl)nn1-c1ccccc1 (stereo not drawn) [M 8086]	–	100	–	100	–	100	–	100	–	100	–	–	–	–	–	–	–	–
CCOP(=S)(Oc1nc(C=C(Cl)Cl)nn1C)N(C)C (stereo not drawn) [M 9643]	–	–	–	–	–	–	–	100	–	100	–	–	–	–	–	–	–	–
CCOP(=S)(OCC)Oc1nc(C(C)N(C)C)nn1-c1ccccc1 (stereo not drawn) [M 8171]	–	–	–	–	–	100	–	70 to 99	–	–	–	–	–	–	–	–	–	–
CCOP(=S)(OCC)Oc1nc(C=C(Cl)Cl)nn1C(C)C [M 8450]	100	–	10 to 69	–	100	–	100	–	100	–	70 to 99	–	–	–	–	–	–	–
COP(=S)(OC)Oc1nc(C=C(Cl)Cl)nn1C(C)C [M 8499]	10 to 69	–	0 to 9	–	10 to 69	–	10 to 69	–	100	–	10 to 69	–	–	–	–	–	–	–
CCOP(=S)(OCC)Oc1nc(C=C(Br)Br)nn1C [M 8308]	–	100	–	100	100	100	–	100	–	100	–	100	–	–	–	–	–	–
CCOP(=S)(OCC)Oc1nc(C(=O)c2ccccc2)nn1-c1ccccc1 [M 7480]	–	–	–	–	–	10 to 69	–	100	–	–	–	–	–	–	–	–	–	–
CCOP(=S)(OCC)Oc1nc(C=C(SC)SC)nn1C [M 8825]	0 to 9	100	100	100	70 to 99	100	100	100	10 to 69	100	10 to 69	100	–	–	–	–	–	–
CCOP(=S)(OCC)Oc1nc(C=C(Cl)Cl)nn1Cc1ccccc1 [M 8827]	–	–	–	100	10 to 69	100	10 to 69	100	–	–	–	–	–	–	–	–	–	–
CCOP(=S)(OCC)Oc1nc(C=C(Cl)SC)nn1C [M 8805]	–	–	100	100	100	100	100	100	–	–	–	–	10 to 69	100	100	100	10 to 69	100
CCOP(=S)(OCC)Oc1nc(C=C(C)C)nn1C [M 8483]	–	–	70 to 99	–	10 to 69	–	100	–	10 to 69	–	–	–	10 to 69	–	–	–	100	–
CCOP(=S)(OCC)Oc1nc(C(C)OC(C)=O)nn1-c1ccccc1 (stereo not drawn) [M 8084]	–	100	–	100	–	100	10 to 69	100	–	100	–	–	–	–	–	–	–	–
CCOP(=S)(OCC)Oc1nc(C=C(Cl)Cl)nn1CC [M 5349/40]	100	–	100	–	100	–	100	–	100	–	70 to 99	–	–	–	–	–	–	–
CCCCn1nc(C=C(Cl)Cl)nc1OP(=S)(OC)OC [M 8477]	–	100	–	100	–	100	–	100	10 to 69	100	–	100	–	–	–	–	–	–
CCCC=C(CC)c1nc(OP(=S)(OCC)OCC)n(C)n1 [M 8591]	–	100	–	100	–	100	100	100	–	100	–	100	–	–	–	–	–	–
CCOP(=S)(OCC)Oc1nc(C=Cc2ccccc2)nn1C [M 8332]	10 to 69	100	–	70 to 99	–	100	–	100	–	100	100	100	–	–	–	–	–	–
CCOC(=O)c1nc(OP(=S)(OCC)OCC)n(-c2ccccc2)n1 [M 8257]	–	70 to 99	–	10 to 69	–	70 to 99	–	70 to 99	–	–	–	10 to 69	–	–	–	–	–	–
CCOP(=S)(OCC)Oc1nc(C=C(Cl)Cl)nn1CC(C)C [M 8498]	100	–	10 to 69	–	70 to 99	–	10 to 69	–	100	–	10 to 69	–	–	–	–	–	–	–
C#CCn1nc(C=C(Cl)Cl)nc1OP(=S)(OCC)OCC [M 8828]	–	100	–	100	10 to 69	100	70 to 99	100	–	–	–	100	–	–	–	–	–	–
CCOP(=S)(OCC)Oc1nc(C(C)=O)nn1-c1ccccc1 [M 7650]	–	100	–	0 to 9	–	100	–	100	–	70 to 99	–	–	–	–	–	–	–	–
CCOP(=S)(OCC)Oc1nc(C(Br)=C(Br)Br)nn1C [M 8089, O,O-diethyl-O-(1-methyl-3-tribromovinyl-5-triazolyl)-thiophosphate]	–	100	–	100	–	100	–	100	–	100	–	100	–	–	–	–	–	–
CCOP(=S)(OCC)Oc1nc(C2=C(Cl)CCCC2)nn1C [M 5338/89]	10 to 69	100	10 to 69	100	–	100	70 to 99	100	–	100	–	100	–	–	–	–	–	–
